Measurements from patent US20260183429A1, “COMPOSITIONS FOR MODULATING ACETYLATED TUBULIN LEVELS AND METHODS THEREOF” (THE TRUSTEES OF COLUMBIA UNIVERSITY IN THE CITY OF NEW YORK, priority 2023, published 2026).
Marks after values point to notes of the source that are not given here.

Key:
Format in all cases: cell-based, mouse
[1] = system: MFN2 KO MEFs; assay: MAM-dependent phospholipid synthesis, 3H-Ser incorporation into PtdSer and PtdEtn; conditions: TSA 10 nM, 6 h, after 2 h and 4 h
Procedure: Both mitochondria and ER play key roles in the synthesis of phosphatidylserine (PtdSer), phosphatidylethanolamine (PtdEtn), and phosphatidylcholine (PtdCho). PtdSer is synthesized in the MAM; it then translocates to mitochondria, where it is converted to PtdEtn; PtdEtn then translocates back to the MAM, to generate PtdCho. To test the effect of MFN2 on phospholipid synthesis mediated by MAM, WT and MFN2 KO MEF cells were incubated for 2 h with serum-free medium to ensure removal of exogenous lipids. The medium was then replaced with MEM containing […] of 3H-serine for 2, 4 and 6 h. The cells were washed and collected in DPBS, pelleted at 2500×g for 5 min at 4° C., and resuspended in 0.5 ml water, removing a small aliquot for protein quantification. Lipid extraction was done by the Bligh and Dyer method. Briefly, three volumes of chloroform/methanol 2:1 were added to the samples and vortexed. […] The spots corresponding to the relevant phospholipids (identified using co-migrating standards) were scraped and counted in a scintillation counter (Packard Tri-Carb 2900TR). […] Therefore, to directly test the effect of MFN2 mutations on phospholipid synthesis mediated by MAM, control and MFN2 KO fibroblasts were incubated in medium containing 3H-serine and measured the incorporation of the label into newly synthesized 3H-PtdSer and 3H-PtdEtn after 2 and 4 h.

[2] = system: Iqgap1 KO MEFs; assay: Mitochondria dynamics in Iqgap1 KO MEFs; conditions: 10 nM TSA, 6 h, compared with TTL silencing
Procedure: (§1) Mitochondria were labeled using MitoTracker™ Red CMROX according to manufacturer protocol (ThermoFisher Scientific) and detected by epifluorescence microscope equipped with 60× objective lens (Olympus IX81) and a monochrome CCD camera (Sensicam QE, Cooke Corporation). Aspect ratio (length/width) were measured in unedited image files by using Image J/FIJI. Brightness and contrast of the images were adjusted to optimize visualization of the mitochondrial segments and to reduce background noise. After selecting an individual cell, the Analyze Particles function (pixel size 10-infinity; circularity 0.00-1.00) was used to count the number of noncontiguous, discrete particles, and describe their shape. For mitochondrial distribution and displacement velocity mitochondria were live imaged for 3 min at 2 sec/frame at 37° C. A customized Mitoplot software was used for analyzing mitochondrial distribution by defining the center of cell and drawing a line towards periphery. Manual tracking plug-in in ImageJ/FIJI was used to analyze mitochondrial displacement velocity by selecting individual mitochondria.

[3] = system: acetylated tubulin in MFN2 KO MEFs; assay: Acetylated tubulin levels by immunoblot and immunofluorescence in MFN2 KO MEFs; conditions: MFN2 KO cells; 10 nM TSA, 6 h and 12 h (FIGS. 2A-2D)
Procedure: (§2) Cells were fixed in 4% PFA for 15 min and permeabilized with 0.1% Triton X-100 for 5 min at R.T. For the MT cytoskeleton, cells were fixed in ice cold MetOH for 10′ prior to rehydration in PBS buffer. Cells were then washed in PBS, blocked in 2% FBS and 2% BSA in PBS for 1 h, stained with primary antibodies overnight at 4° C. followed by secondary antibodies for 1 h. Mounted samples were observed using a Zeiss LSM 800 confocal microscope using a 63× objective (Plan-Apochromat, NA 1.4). Z stack (0.5 um) images were acquired. To calculate the Mitotic Index as percentage, the number of cells in mitosis were divided by the total number of cells multiplied by 100. […] ROIs were selected in both channels to calculate mean fluorescence and integrated density prior to calculating corrected total fluorescence intensity (CTCF=Integrated Density−(Area of selected cell*Mean fluorescence of background readings). For measuring MT associated MB11 intensity, an ROI was selected along individual tyrosinated MTs using ImageJ and GTP tubulin (hMB11) pixel intensity was calculated along the tyrosinated tubulin signal and corrected by subtracting out background signal fluorescence intensity.
(§3) Cells were lysed in Laemmli sample buffer and boiled at 96° C. for 5 min. […] Image acquisition was performed with an Odyssey imaging system (LI-COR Biosciences, NE) and analyzed with Odyssey software.

[4] = system: MFN2 KO MEFs; assay: Mitochondria fusion by mitoDendra photoconversion in MFN2 KO MEFs; conditions: MFN2 KO cells; TSA 10 nM, 6 h
Excerpt: Dendra2 photoconversion and imaging utilized the protocol from Evrogen. Images were acquired with an Olympus spinning disk microscope EC-Plan-Neofluar 40X/1.3 oil. Z-stack acquisitions over-sampled each optical slice twice, and the Zen 2009 image analysis software was used for maximum z-projections. The 488 nm laser line and the 561 nm laser excited Dendra2 in the unconverted state and photo-converted state, respectively. To photo-switch Dendra2, a region was illuminated with the 405 nm line (4% laser power) for 90 bleaching iterations. The corrected total fluorescence intensity of both the channels was calculated using ImageJ and colocalization percentage was calculated.

[5] = system: WT MEFs; assay: MT plus end dynamics, GFP-tubulin live imaging, WT MEFs; conditions: WT + TSA
Procedure: (§4) Fibroblasts were transfected with pMSCV-puro-tagGFP-C4 α-tubulin plasmid to generate a green fluorescent protein (GFP)-tubulin stably expressing cell line. Live imaging of MT dynamics in transfected cells was performed at 37° C. and 5% CO2 for 5 min (5 s/f) with a 100×
(§5) PlanApo objective (numerical aperture 1.45) and an iXon X3 CCD camera (Andor, Belfast, United Kingdom) on a Nikon Eclipse Ti microscope controlled by Nikon's NIS-Elements software (Nikon, Tokyo, Japan). Movies were analyzed by ImageJ using a manual tracking plug-in. Dynamicity is calculated by dividing the sum of growth and shrinkage distances by MT lifetime.

[6] = system: Iqgap1 KO MEFs; assay: MT plus end dynamics, GFP-tubulin live imaging, Iqgap1 KO MEFs; conditions: Iqgap1 KO + TSA
Procedure: as §4, §5

[7] = system: MFN2 KO MEFs; assay: Mitochondrial morphology, motility, distribution and association with MTs in MFN2 KO MEFs; conditions: MFN2 KO cells
Procedure: For immunofluorescence staining of the MT cytoskeleton, cells were fixed in ice cold MetOH for 10′ prior to rehydration in PBS buffer. For all other staining, cells were fixed in 4% PFA for 15 min and permeabilized with 0.1% Triton X-100 for 5 min at R.T. Cells were then washed in PBS, blocked in 2% FBS and 2% BSA in PBS for 1 h, stained with primary antibodies overnight at 4° C. followed by secondary antibodies for 1 h. Mounted samples were observed using a Zeiss LSM 800 confocal microscope equipped with Airyscan module, using a 63× objective (Plan-Apochromat, NA 1.4). Z stack (0.2 um) images were acquired and processed using Zen Blue 2.1 software prior to analysis by ImageJ software. For 3D reconstruction, mitochondrial networks in individual cells were quantified by analyzing the network volume using Imaris software (Bitplane, Concord, MA). For line scan analysis, a line was drawn, and intensity was measured represented as gray values. The amount of fluorescence of the colocalizing pixels in each channel (Mander's coefficient) was calculated using ImageJ. The file was opened, and channels were split. Each select file was changed to 8-bit greyscale and max projection images was generated. Colocalization was assessed by Plugin co-localization finder. To calculate number of ATAT1 foci, each image was converted into an 8-bit greyscale image and ATAT1 signal thresholded until the foci appeared isolated from the background in a binary image. Both channels were then merged into one and the number of foci localizing in the merged stack quantified. To calculate ATAT1 localization with MFN2 on mitochondria, numbers of ATAT1 and MFN2 foci were quantified on each channel individually. Both channels were then merged into one and number of foci in the merged stack analyzed and quantified on mitochondria.
as §1

[8] = system: acetylated tubulin in Iqgap1 KO MEFs; assay: Acetylated tubulin levels in Iqgap1 KO MEFs; conditions: 10 nM TSA, 6 h or 12 h
Procedure: as §2, §3

[9] = system: MFN2 KO MEFs; assay: Lipidomics of lipid classes in MFN2 KO MEFs; conditions: MFN2 KO cells; TSA 10 nM
[10] = system: MFN2 KO MEFs; assay: MT plus end dynamics, GFP-tubulin live imaging, MFN2 KO MEFs
Procedure: as §4, §5

Compound: CC(/C=C/C(=O)NO)=C\[C@@H](C)C(=O)c1ccc(N(C)C)cc1 [TSA, trichostatin A]
- MAM-dependent phospholipid synthesis (3H-Ser into 3H-PtdSer and 3H-PtdEtn) [1]: failed to normalize
- mitochondria dynamics [2]: rescue of mitochondria dynamics
- acetylated tubulin levels [3]: normalized
- mitochondria fusion [4]: completely failed to recover
- % Growth ([5]; Table 3): 20.04 ± 1.28^c,x %
- % Pause ([5]; Table 3): 63.5 ± 0.64^c,x %
- % Shrinkage ([5]; Table 3): 18.25 ± 1.37^c,x %
- Catastrophe frequency ([5]; Table 3): 0.05 ± 0.004 s⁻¹
- Growth rate ([5]; Table 3): 0.04 ± 0.007 μm/s
- MT lifetime ([5]; Table 3): 56.5 ± 3.66 s
- Rescue freq. ([5]; Table 3): 0.07 ± 0.006 s⁻¹
- Shrinkage rate ([5]; Table 3): 0.07 ± 0.008 μm/s
- % Growth ([5]; Table 4 (Iqgap1 series)): 23.75 ± 0.85^b,x %
- % Pause ([5]; Table 4 (Iqgap1 series)): 50 ± 2.48^b,x %
- % Shrinkage ([5]; Table 4 (Iqgap1 series)): 27.25 ± 3.19%
- Catastrophe frequency ([5]; Table 4 (Iqgap1 series)): 0.06 ± 0.003 s⁻¹
- Growth rate ([5]; Table 4 (Iqgap1 series)): 0.04 ± 0.004 μm/s
- MT dynamicity ([5]; Table 4 (Iqgap1 series)): 3.32 ± 0.24^a,x μm/min
- MT lifetime ([5]; Table 4 (Iqgap1 series)): 49.5 ± 2.32 s
- Rescue freq. ([5]; Table 4 (Iqgap1 series)): 0.07 ± 0.007 s⁻¹
- Shrinkage rate ([5]; Table 4 (Iqgap1 series)): 0.03 ± 0.004 μm/s
- % Growth [6]: 25.25 ± 1.54^b,y %
- % Pause [6]: 51.75 ± 1.10^b,y %
- % Shrinkage [6]: 22.5 ± 0.86^b,y %
- Catastrophe frequency [6]: 0.06 ± 0.004 s⁻¹
- Growth rate [6]: 0.095 ± 0.006^a,y μm/s
- MT dynamicity [6]: 3.77 ± 0.33^b,y μm/min
- MT lifetime [6]: 51.25 ± 1.79 s
- Rescue freq. [6]: 0.08 ± 0.006 s⁻¹
- Shrinkage rate [6]: 0.09 ± 0.004 μm/s
- co-localization of mitochondria with MTs ([7]; 10 nM TSA, 6 h (FIGS. 2E, 2F)): restored
- central and peripheral mitochondrial displacement velocity ([7]; TSA 10 nM, 6 h): normalized
- mitochondria distribution ([7]; TSA 10 nM, 6 h): normalized
- mitochondria elongated morphology ([7]; TSA 10 nM, 6 h): partially reestablished
- acetylated tubulin levels [8]: restoration of acetylated tubulin levels
- changes in sphingomyelin, cholesterol, cholesteryl esters and ceramide levels [9]: rescued
- % Growth ([10]; MFN2 KO + TSA): 22.4 ± 0.90^c,y %
- % Pause ([10]; MFN2 KO + TSA): 62.13 ± 1.68^c,y %
- % Shrinkage ([10]; MFN2 KO + TSA): 16.05 ± 1.42^c,y %
- Catastrophe frequency ([10]; MFN2 KO + TSA): 0.05 ± 0.006 s⁻¹
- Growth rate ([10]; MFN2 KO + TSA): 0.08 ± 0.005^a,y μm/s
- MT dynamicity ([10]; MFN2 KO + TSA): 4.858 ± 0.46^c,y μm/min
- MT lifetime ([10]; MFN2 KO + TSA): 60.25 ± 1.43 ^ s
- Rescue freq. ([10]; MFN2 KO + TSA): 0.09 ± 0.004 s⁻¹
- Shrinkage rate ([10]; MFN2 KO + TSA): 0.08 ± 0.005^a,y μm/s
- MT dynamics ([10]; MFN2 KO cells + TSA (Table 3)): normalized

Compound: O=C(CCCCCCC(=O)Nc1ccc([C@H]2O[C@@H](CSc3nc(-c4ccccc4)c(-c4ccccc4)o3)C[C@@H](c3ccc(CO)cc3)O2)cc1)NO [tubacin, Tubacin]
- mitochondrial displacement velocity, distribution, aspect ratio and fusion compared with TSA ([7]; tubacin 20 μM, 6 h (FIGS. 3F-3I)): Identical results
